Row | Compound | melting point [°C]
1 | Cc1c(-c2ccc(Cl)cc2)ccc2nc(C(=O)NC(Cc3ccc(OCc4ccccc4)cc3)C(=O)O)cn12 (stereo not given) | 263 to 264
2 | Cc1ccc(C(=C2CN(C(c3ccccc3)c3ccccc3)C2)S(C)(=O)=O)cc1 | 210
3 | Cn1cccc1C(=O)NCCN1CCC(Nc2nc3ccccc3n2Cc2ccc(CO)o2)CC1 | 182
4 | CCOC(=O)N1CCC(SC(c2ccccc2)c2ccccc2)CC1 | 70 to 71
5 | CCOP(=O)(Cc1ccc(NC(=O)/C=C/c2cnoc2-c2ccccc2)cc1)OCC | 173 to 174
6 | COc1cc(OC)c(-c2cccs2)cc1/C=C/C(=O)c1ccc(C(=O)O)cc1 | 213 to 216
7 | CC1(C)C2CCC3(C)C(C2)C(=O)CCC13O (stereo not given) | 120 to 123
8 | COc1ccc(Oc2ccc(OCc3ccccc3)cc2[N+](=O)[O-])cc1 | 120
9 | O=C(NCCN1C(=O)C2(COc3cc4c(cc32)OCO4)c2ccccc21)c1ccccc1OC(F)(F)F (stereo not given) | 183 to 184
10 | Cc1nc(-c2ccc(Cl)cc2)nn1CCC=O | 108 to 109
11 | C=Cn1cc(C(=O)O)c(=O)c2cc(F)c(-c3ccncc3)nc21 | 254 to 257
12 | FC(F)(F)c1ccc2nc(N3CCN(c4ncncc4Cl)CC3)[nH]c2c1 | 66.6 to 66.7
13 | COc1ccc2c(c1)C(CC(=O)O)=C(C)C2=Cc1ccc(SC)cc1 | 195 to 196
14 | CCc1nn(-c2c(Cl)cc(Cl)cc2Cl)c(N)c1C(N)=O | 186 to 188
15 | CCOc1cc(OCC(=O)OCc2ccccc2)cc2c1C(=O)N(COC(=O)c1c(Cl)cccc1Cl)S2(=O)=O | 157 to 158
16 | Cc1nc(N2CCc3ccccc3CC2)c(C#N)c(=O)n1N(C)C(=O)OC(C)(C)C | 164 to 166
17 | COCC1CCCN1S(=O)(=O)c1ccc2c(c1)C1(OCCCO1)C1=NCC(C)(C)CN12 (stereo not given) | 169 to 171
18 | COc1ccc(C2Sc3ccccc3NC(=O)C2CO)cc1 (stereo not given) | 217
19 | CCOC(=O)c1cc(C#N)c(C=O)nc1Nc1ccccc1 | 165 to 167
20 | CCn1c(=O)n(Cc2ccccc2)c(=O)c2c(N3CCN(C)CC3)cc(Cl)cc21 | 68 to 75
21 | O=C(c1cc(-c2cccc(Cl)c2)c(=O)n2c1-c1c(Cl)cccc1C2)N1CCC[C@@H]1CO | 228 to 230
22 | CC1(C)COS(=O)(=O)OC1 | 80 to 82
23 | O=C(O)Cn1cc(Br)cnc1=O | 183 to 185

Row | Compound | melting point [°C]
24 | CN1CCN(Cc2nc3cccnc3n2CCO)CC1 | 89.5
25 | COC(=O)C=C(C)NCC(O)CO (stereo not given) | 109 to 111
26 | CC(=O)NC[C@H]1NC(=O)[C@H]1NC(=O)Cc1ccccc1 (relative stereo) | 200 to 202
27 | COc1ccccc1-c1n[nH]c2c(Cl)cc(C)nc12 | 184 to 190
28 | CCOC(=O)c1cccc(CN2CCN(c3nc(C)c(C(=O)NCc4ccccc4)s3)C2=O)c1 | 118 to 120
29 | Oc1ccccc1C1OCCO1 | 67 to 70
30 | CC1(C)CC(OC(=O)c2ccccc2)CC(C)(C)N1N=Nc1ccccc1 | 89 to 91
31 | CC(C(=O)NCCN(C)C)c1ccc(-c2cn3ccccc3n2)cc1 (stereo not given) | 149 to 150
32 | Cc1noc(NS(=O)(=O)c2ccccc2-c2ccc(-c3ncco3)cc2/C=C/c2ccccc2)c1C | 102 to 109
33 | CCCCCN1C(=O)C2(OCc3cc4c(cc32)OCO4)c2ccccc21 (stereo not given) | 113 to 115
34 | C=C1C(=O)N(C)CCC1(CC(=O)OC)c1cccc(OC)c1 (stereo not given) | 85 to 86
35 | O=C(Nc1cccc(S(=O)(=O)NCC(F)(F)F)c1)c1cnn2c(C(F)F)cc(-c3ccc(C(F)(F)F)cc3)nc12 | 257
36 | O=C(c1ccc2nonc2c1)N1CCCC1 | 97.8 to 99.3
37 | O=C(O)CCCNC(=O)c1ccccc1NC(=O)c1cc([N+](=O)[O-])ccc1O | 239 to 241
38 | CCCCOc1ccc(NC(=O)c2cnc(C(=O)OC)c(OC)c2)cc1 | 138 to 141
39 | O=C(O)CCCN(C(=O)c1ccc(Cl)c(Cl)c1)c1ccc2c(c1)CCC2 | 58 to 59
40 | C=Cc1c(CS)cnc(C)c1O | 130 to 140
41 | O=P(c1ccccc1)(c1ccccc1)c1cc(O)ccc1O | 216 to 218
42 | Cn1nc(-c2c(F)cccc2F)nc1-c1ccc(OCc2ccc(C(F)(F)F)cc2)c(Cl)c1 | 171 to 177
43 | N#CC1CN1C(=O)NC(=O)c1ccc(Cl)cc1 (stereo not given) | 160 to 162
44 | c1ccc2c(c1)CC1CN(Cc3c[nH]c4ncccc34)CCN21 (stereo not given) | 197 to 198
45 | CC(C)(C)c1ccc2c(c1)C(=O)c1ccc(-c3nnn[nH]3)cc1S2(=O)=O | 228

Continued, values first:

Row | melting point [°C] | Compound
46 | 173 to 175 | Cc1cnc(Oc2cccc(C(F)(F)F)c2)c(C(=O)O)c1
47 | 136 to 138 | O=C(NC(CS)Cc1ccccc1)NC(CS)Cc1ccccc1 (stereo not given)
48 | 93 to 94 | CS(=O)(=O)OCCCc1ccccc1OCc1coc(/C=C/c2ccccc2)n1
49 | 163 to 165 | O=C(NNC(=S)Nc1cccc(Br)c1)c1cccc([N+](=O)[O-])c1
50 | 233 to 237 | Cn1c(-c2ccc(-n3cnc4ccccc43)cc2)cnc1[C@H](Cc1ccccn1)N(C=O)c1cc2ccccc2[nH]1
51 | 142 to 144 | COc1ccc(C2=NN(C3CCCC3)C(=O)[C@H]3CC=CC[C@@H]23)cc1O (relative stereo)
52 | 118 to 120 | CC(C)OC(=O)Cn1c(-c2ccc(Cl)cc2)nc2cccnc21
53 | 157 to 158 | COc1ccc(C=C(C#N)C=O)cc1OC
54 | 89 to 90 | CCc1c(CC(=O)O)ccc(OC)c1OC
55 | 229 | CC(C)NS(=O)(=O)c1cccc(NC(=O)c2cnn3c(C(F)F)cc(-c4ccc(C(F)(F)F)cc4)nc23)c1
56 | 124 to 125 | N#CN1CCC(c2nn(-c3ccccc3)c3ccccc23)CC1
57 | 122 to 125 | CN(C)CCCNC(=O)c1cccc([N+](=O)[O-])c1Cl
58 | 320 to 322 | c1ccc2c(c1)ncc1nc(-c3nnn[nH]3)cn12
59 | 181 | O=C(O)[C@@H]1CCCN1C(=O)C1CCCCN1 (stereo not given in full)
60 | 226 to 228 | Cc1ccc(OC2CCN(C(=O)C(=O)Nc3ccc4c(c3)OCC(=O)N4)CC2)cc1
61 | 220 to 223 | CC(=O)c1cccc2nc[nH]c12
62 | 195 to 197 | CC(C)[C@H](NC(=O)N(C)Cc1nccs1)C(=O)N[C@@H](Cc1ccccc1)C[C@H](O)[C@H](Cc1ccccc1)NC(=O)[C@@H](NC(=O)N(C)Cc1nccs1)C(C)C
63 | 159 to 160 | CC(C)c1nc(-c2ccccc2)c(C(C)C)c(-c2ccc(F)cc2)c1C=O
64 | 228 to 230 | N#Cc1cccc(-c2cnc3[nH]c(=O)n(CC4CCCCC4)c3n2)c1
65 | 183 to 185 | O=C1C2CC(O)CCN2C(=O)N1c1ncc(Cl)cc1F (stereo not given)
66 | 222 to 223 | CC(=O)Nc1ncc2ncn([C@@H]3C[C@H](OC(C)=O)[C@@H](O)[C@H]3O)c2n1 (racemic)
67 | 130 | Cc1cc(-n2ccnc2)c2cccc(OCc3c(Cl)ccc(S(=O)(=O)N4CCCC4C(=O)NCC4CCCCN4C(=O)CC(=O)O)c3Cl)c2n1 (stereo not given)
68 | 62.8 | CC(C)Oc1ccc(F)c(N2C(=O)C3=C(CCCC3)C2=O)c1
69 | 263 to 264 | O=C(O)c1ccc(-c2ccc3cc(OCc4ccccc4)c(C45CC6CC(CC(C6)C4)C5)cc3c2)cc1O
70 | 56 to 58 | COc1ccc(S(=O)CC(C)=O)cc1 (single isomer, unassigned; (-))
71 | 124 to 127 | COc1ccc(-c2cc(=O)n(Cc3ccc(Cl)cc3)nc2-c2ccc(OC)cc2)cc1
72 | 181 to 184 | O=C(O)Cc1ccc2c(c1)C(=O)Cc1cccnc1O2
73 | 147 to 148 | COC(=O)c1sc(C)c2[nH]c(C(F)(F)C(F)(F)C(F)(F)F)nc12

Row | melting point [°C] | Compound
74 | 165 to 168 | COc1ccc(C)cc1NC(=O)Nc1ccc(N2CCN(C(=O)Nc3ncccc3C(=O)O)CC2)cc1
75 | 25 to 30 | C=CCCCCCCCCCN1C(=O)c2ccccc2C1=O
76 | 165 to 168 | CCN(C)c1nsc(NC(=O)NC)c1C(N)=O
77 | 151 to 152 | Nc1cccc(Cc2cc(O)ccc2O)c1
78 | 122 to 125 | C=CCCc1ccc(C#N)c(O)n1
79 | 141 to 143 | COc1ccc(C(CCCCC(=O)O)C2=CC(=O)c3ccccc3C2=O)cc1 (stereo not given)
80 | 227 to 229 | CCCc1nc2c(N)nc(C)c(C)c2n1Cc1cc(-c2ccc(F)cc2)no1
81 | 61 to 63 | CC(C)c1ccc(C(Cl)=NO)cc1
82 | 204 to 205 | COc1ccc(C(=O)Nc2ccc(C)c(NC(=O)c3cccc(N(C)C)c3)c2)cc1OC
83 | 151 to 152 | CC(C)C(O)C(O)C(O)C(CC1CCCCC1)NC(=O)OC(C)(C)C (stereo not given)
84 | 93 to 94 | CC1(C)CCCC(C)(C)N1CCO
85 | 152 to 154 | CCC1(C)CN(c2c(F)cc3c(=O)c(C(=O)O)cn(C4CC4)c3c2OC)CCC1N (stereo not given)
86 | 238 to 239 | C=Cn1cc(C(=O)O)c(=O)c2ccc(N3CCN(C)CC3)nc21
87 | 165 to 166 | Cc1cc2c(c3c1NC(=O)CC3(C)C)OC(CO)C2 (stereo not given)
88 | 75.2 to 75.8 | C=CCCOc1ccc(CCCO)c(Oc2ncc(C(F)(F)F)cc2Cl)c1
89 | 125 | Cc1nc2n(C)c(C)cn2c(=O)c1CCBr
90 | 166 to 167 | Cn1ccc2c1CC(c1ccccc1)CC2=O (stereo not given)
91 | 176 | Cc1cc(O)c(SC23CC4CC(CC(C4)C2)C3)c(=O)o1
92 | 190 to 191 | Cc1ccccc1C1CC(=O)c2c(C)c[nH]c2C1 (stereo not given)
93 | 185 to 195 | COc1cc(N2CCC(N3CCOCC3)CC2)ccc1-c1nc2c(N[C@H]3[C@@H](C(N)=O)[C@@H]4C=C[C@H]3C4)c(Br)cnc2[nH]1
94 | 179 to 181 | NC(=O)c1ncn2c1NCCC2c1cccc(C(F)(F)F)c1 (stereo not given)
95 | 245 to 246 | NC(=O)C1CCc2[nH]c3cc(Cl)c(F)cc3c2C1 (stereo not given)
96 | 143 to 145 | O=C(NCCCCOc1ccc(-n2ccnc2)cc1)c1ccc(I)cc1
97 | 110 to 112 | COc1ccc2c(cc(C)n2-c2ncnc3cc(Cl)ccc23)c1CC(=O)O
98 | 283 to 286 | NC(=O)c1nc(-c2cccnc2Cl)nc2c1[nH]c(=O)n2-c1ccccc1
99 | 224 to 226 | Oc1ccc(-c2nsc3ccccc23)c(Cl)c1Cl
100 | 75 to 78 | Clc1ccccc1C1=NOC(c2ccccc2Cl)N1 (stereo not given)

Reference: a melting point compilation (Tetko et al.; mined from patent text by program, amines drawn as free bases though some values may be those of a salt)
